This is an account of results in patent US20250034139A1, “AMINE COMPOUNDS HAVING ANTI-INFLAMMATORY, ANTIFUNGAL, ANTIPARASITIC, AND ANTICANCER ACTIVITY” (PHARMA CINQ, LLC, priority 2013, published 2025).

Values after ≈ are worked out from the molar mass of the structure shown.

For one assay, the system named is THP-1 cells. In words: Example D: LPS-triggered THP-1 cell death assay, acute/5-hour and chronic/48-hour. The assay is classed as cell-based, Human. The settings on record: for activity relative to AC in the LPS-triggered THP-1 cell death assay, in words: 0.1 μM, 5-hour and 48-hour time points; for Viable cell percent change, Chronic/48-hour, Mean: 10 ng/ml LPS, 0.1 μM test compound. On the procedure:
Compounds of the invention were tested at 0.1 μM versus AC in the LPS-triggered THP-1 cell death assay. Both acute/5-hour and chronic/48-hour phases of cell death were assessed. Compounds were screened in batches with DMSO as the negative control and AC as the high activity control.

In assay [1] the test system is Candida albicans strain 3153. In words: Example H: Candida albicans growth inhibition (OD 600 nm). The class given is cell-based. The note with it: for MIC: Candida albicans, 3153, 24 hrs at 30° C., YPD, XLfit, read-out: MIC (uM) (99% of inhibition of fungal growth); for IC50: Candida albicans, 3153, read-out: IC50 (uM) (50% inhibition of fungal growth), 24 hrs at 30° C., YPD, XLfit. On the procedure: A single colony of Candida Albicans was grown in 50 ml YPD broth overnight (19 hr). The cells were washed with PBS and 3.5×10^4 CFU/ml of C. Albicans (144 μl/well) in YPD medium were plated in 96 well plates. Test compounds were then added to each well with concentration ranged from 5 to 40 μM as final concentrations. The plates were incubated at 30° C. overnight (24 hrs) and OD at 600 nm was read at the end of incubation as an index of yeast cell density.
Part-I: Preparation of Candida albicans Cells • 1. One day prior to the inoculum preparation, pick a single colony of Candida albicans strain 3153 (lot #61794) from the Sabouraud Dextrose Agar plate using the inoculum loop and inoculate into a 250 mL flask containing 50 ml of YPD growth medium • 2. Incubate at 30° C. with shaking at 150 rpm for at least 18 hours with loosened lid to allow air in and facilitate growth. • 3. Examine an aliquot of the culture under a microscope for Candida cell morphology and lack of bacterial contamination; >95% of Candida cells should be blastoconidia. • 4. Transfer 25 ml the overnight culture into a 50-ml plastic disposable centrifuge tube, and centrifuge at 1000×g for 20 min. • 5. Discard the supernatant and wash the pellet with 4 ml of PBS at three times. Vortex and centrifuge, 1000×g for 10 min. • 6. After the third wash, dispense the pellet with 2 ml PBS and vortex. • 7. Make three 1:10 serial dilutions in sterile PBS (10^−1, 10^−2, 10^−3) from the 2 ml cell suspension using 15 ml culture tubes. The final volume in each tube is 5 ml. • 8. […] Make a 1:4 dilution in YPD medium from the 50-fold dilution of 10^−3 cell suspension for testing compounds. • The final C. albicans cell concentration for the test: 3.5×10^4 CFU/ml • 10. Plated 144 ul/well of the above dilution of cell on 96-well plates. Part-II: C. Albicans Growth Inhibition Testing with Compounds • 1. From 10 mM DMSO stock solutions, make serial dilutions of compounds to 0.13, 0.25, 0.40, 0.55, 0.75 and 1.0 mM solutions • 2. Add 6 ul each of diluted compound solutions per well in duplicates. The final concentrations were 0, 5, 10, 16, 22, 30 and 40 micromolar. • 3. Incubated all plates at 30 C for overnight (˜24 hours). • 4. Read absorbance at OD600 for each plate. • 5. Calculate the % inhibition of each compound against the DMSO treated cell.

Assay [2] relates to 4T1 murine breast cancer cells. As to the kind of experiment: Example S: in vitro anticancer screen, 4T1 cells, Wst1. The assay is classed as cell-based, mouse. The note with it: Mus musculus, 4T1, 18 h, 18 hr, Wst1; for viability at 1 µM: read-out: 4T1 1 μM, percent of cancer cell survival relative to vehicle treated cells; for viability at 5 µM: read-out: 4T1 5 μM, percent of cancer cell survival relative to vehicle treated cells. An outline of the steps: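 4T1 cells seeded at 1×10^4/well were exposed to compound at 1 μM or 5 μM for 18 hr after plating. Wst1 tetrazolium dye was then added for about 2 hr and absorbance read at 450 nm (reference 630 nm). Values are percent survival relative to vehicle-treated cells.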

Assay [3] has as its system PC3 human prostate cancer cells. In words: Example S: in vitro anticancer screen, PC-3 cells, Wst1. The note with it: Homo sapiens, PC-3, approximately 20 hours, Wst1, read-out: PC-3, percent of cancer cell survival relative to vehicle treated cells. The class given is cell-based. In outline: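 PC-3 cells, 2×10^4 cells/well, exposed ~20 h to vehicle or compound at 0.4, 0.5 or 2.5 μM as specified per compound. Wst1 dye added for 2 h; absorbance 450 nm (reference 630 nm), triplicates. Values are percent cell survival versus vehicle-treated cells.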

In assay [4] the test system is PC-3 prostate cancer cells. As to the kind of experiment: Example T: sensitisation of PC-3 cells to doxorubicin, oxaliplatin, paclitaxel or vincristine, Wst1. The settings on record: PC-3 cells, 72 hours; for viability at 0.4 µM / viability at 2.5 µM: Homo sapiens, Wst1, vehicle = 100, read-out: No Chemo: percent cell survival; for viability at 0.4 µM: compound 0.4 μM alone; for Doxorubicin 3.5 μM: percent cell survival / Oxaliplatin 100 μM: percent cell survival / Paclitaxel 50 μM: percent cell survival / Vincristine 100 nM: percent cell survival: chemotherapy agent alone normalized to 100%; for viability at 2.5 µM: compound 2.5 μM alone. The assay is classed as cell-based, human.

Setting [5] is: compound 0.4 μM + doxorubicin 3.5 μM.
[6] abbreviates: compound 0.4 μM + oxaliplatin 100 μM.
Where [7] appears, read: compound 0.4 μM + paclitaxel 50 μM.
Setting [8] is: compound 0.4 μM + vincristine 100 nM.
[9] abbreviates: compound 2.5 μM + doxorubicin 3.5 μM.
The mark [10] stands for this setting: compound 2.5 μM + oxaliplatin 100 μM.
Setting [11] is: compound 2.5 μM + paclitaxel 50 μM.
Setting [12] is: compound 2.5 μM + vincristine 100 nM.

Regarding `CCOCCCOCCCCCCCCNc1ccnc2ccccc12` [AJ, N-[8-(3-Ethoxypropoxy)octyl]quinolin-4-amine], the “activity relative to AC in the LPS-triggered THP-1 cell death assay, in words” value (“activity relative to AC” for short) in the assay with THP-1 cells was “equivalent activity to AC at both the 5-hour and 48-hour time points”. In assay [1], the MIC (usually the lowest concentration found to suppress growth) is 113 µM (≈ 40.7 µg/mL) and the 50% inhibitory concentration (IC50) – broadly, the concentration needed to halve the response being measured – turned out to be 43.2 µM. In addition, in assay [2], the viability at 1 µM is 22.4% and the viability at 5 µM was determined as 21.1%. Also, the viability at 0.4 µM in assay [3] turned out to be 18.5%. Besides, in assay [4], the viability at 0.4 µM was determined as 18.5%. In assay [4] (setting [5]), the “Doxorubicin 3.5 μM: percent cell survival” value is recorded as 33.1%. Also, in assay [4] (setting [6]), the “Oxaliplatin 100 μM: percent cell survival” value was determined as 22.5%. Also, the “Paclitaxel 50 μM: percent cell survival” value in assay [4] (setting [7]) turned out to be 20.8%. Also, the “Vincristine 100 nM: percent cell survival” value in assay [4] (setting [8]) is 20.1%.

For `c1ccc(OCCCCCCNc2ccnc3ccccc23)cc1` [AR, N-(6-Phenoxyhexyl)quinolin-4-amine], in the assay with THP-1 cells, the “Viable cell percent change, Chronic/48-hour, Mean” value (“Viable cell percent change” for short) is 28.75%; the “activity relative to AC” value is “equivalent activity to AC at both the 5-hour and 48-hour time points”. Besides, in assay [1], the MIC was 69.8 µM (≈ 22.4 µg/mL) and the IC50 was 46.1 µM. For the same compound, in assay [2], the viability at 1 µM is 25.4% and the viability at 5 µM was found to be 47%. Also, the viability at 0.4 µM in assay [3] is 57%. The viability at 0.4 µM in assay [4] turned out to be 57%. Moreover, the “Doxorubicin 3.5 μM: percent cell survival” value in assay [4] (setting [5]) came to 22.4%. In assay [4] (setting [6]), the “Oxaliplatin 100 μM: percent cell survival” value worked out at 24.1%. Besides, the “Paclitaxel 50 μM: percent cell survival” value in assay [4] (setting [7]) amounted to 54.1%. For the same compound, in assay [4] (setting [8]), the “Vincristine 100 nM: percent cell survival” value stood at 24.2%.

Turning to `CCCCCCOCCCOCCCCCNc1ccnc2ccccc12` [BB, N-{5-[3-(Hexyloxy)propoxy]pentyl}quinolin-4-amine], the “Viable cell percent change” value in the assay with THP-1 cells is reported as 0.65%. For the same compound, in assay [1], the MIC came to 99.7 µM (≈ 37.1 µg/mL) and the IC50 is 50.9 µM. For the same compound, in assay [2], the viability at 1 µM was 59.6% and the viability at 5 µM came to 41.1%. Moreover, the viability at 2.5 µM in assay [3] was determined as 16.3%. Also, the viability at 2.5 µM in assay [4] was 16.3%. For the same compound, the “Doxorubicin 3.5 μM: percent cell survival” value in assay [4] (setting [9]) is on record as 20.4%. Further, in assay [4] (setting [10]), the “Oxaliplatin 100 μM: percent cell survival” value was found to be 24.7%. The “Paclitaxel 50 μM: percent cell survival” value in assay [4] (setting [11]) was determined as 25%. Further, the “Vincristine 100 nM: percent cell survival” value in assay [4] (setting [12]) is recorded as 17.2%.

As to `CCCCCCOCCCCCOCCCNc1ccnc2ccccc12` [BC, N-{3-[5-(Hexyloxy)pentyloxy]propyl}quinolin-4-amine], in the assay on THP-1 cells, the “Viable cell percent change” value was determined as 6.40%. Further, in assay [1], the MIC came out at 108 µM (≈ 40.1 µg/mL) and the IC50 stood at 45.7 µM. In assay [2], the viability at 1 µM came out at 96.9% and the viability at 5 µM was found to be 47.2%. In addition, the viability at 2.5 µM in assay [3] amounted to 26%. Further, in assay [4], the viability at 2.5 µM came to 26%. Also, the “Doxorubicin 3.5 μM: percent cell survival” value in assay [4] (setting [9]) was found to be 32.6%. The “Oxaliplatin 100 μM: percent cell survival” value in assay [4] (setting [10]) is recorded as 32.3%. The “Paclitaxel 50 μM: percent cell survival” value in assay [4] (setting [11]) was determined as 29.8%. Moreover, the “Vincristine 100 nM: percent cell survival” value in assay [4] (setting [12]) turned out to be 28.9%.

With `CCCOCCOCCCCCCCCNc1ccnc2ccccc12` [BD, N-[8-(2-Propoxyethoxy)octyl]quinolin-4-amine], in the assay on THP-1 cells, the “activity relative to AC” value is “equivalent activity to AC at both the 5-hour and 48-hour time points”. For the same compound, in assay [1], the MIC is 134 µM (≈ 48 µg/mL) and the IC50 is 37.5 µM. In assay [2], the viability at 1 µM came out at 25.5% and the viability at 5 µM was 27.7%. The viability at 0.4 µM in assay [3] came to 29.3%. In addition, in assay [4], the viability at 0.4 µM came to 29.3%. The “Doxorubicin 3.5 μM: percent cell survival” value in assay [4] (setting [5]) is 66.1%. Also, the “Oxaliplatin 100 μM: percent cell survival” value in assay [4] (setting [6]) turned out to be 61.3%. The “Paclitaxel 50 μM: percent cell survival” value in assay [4] (setting [7]) is on record as 28.4%. Also, the “Vincristine 100 nM: percent cell survival” value in assay [4] (setting [8]) is reported as 33.3%.

`COc1cccc(OCCCCCCCCNc2ccnc3ccccc23)c1` [BH, N-[8-(3-Methoxyphenoxy)octyl]quinolin-4-amine]: in the assay on THP-1 cells, the “Viable cell percent change” value is given as 34.77%; the “activity relative to AC” value was “equivalent activity to AC at both the 5-hour and 48-hour time points”. Besides, in assay [1], the MIC was found to be 30.1 µM (≈ 11.4 µg/mL) and the IC50 was determined as 18.1 µM. Also, in assay [2], the viability at 1 µM is 21% and the viability at 5 µM was 19.3%. The viability at 0.4 µM in assay [3] was 98.5%. Besides, the viability at 0.4 µM in assay [4] worked out at 98.5%. In addition, in assay [4] (setting [5]), the “Doxorubicin 3.5 μM: percent cell survival” value was found to be 35.7%. The “Oxaliplatin 100 μM: percent cell survival” value in assay [4] (setting [6]) is reported as 30.6%. Moreover, the “Paclitaxel 50 μM: percent cell survival” value in assay [4] (setting [7]) is listed as 61%. Moreover, in assay [4] (setting [8]), the “Vincristine 100 nM: percent cell survival” value came to 71.6%.

Turning to `CCCCOCCCCCCCCn1cnc2cnc3ccccc3c21` [BQ, 1-(8-Butoxyoctyl)-1H-imidazo[4,5-c]quinoline], the “Viable cell percent change” value in the assay with THP-1 cells was determined as 13.70%. Moreover, the concentration for half-maximal inhibition (IC50) in assay [1] turned out to be 51.7 µM. The viability at 2.5 µM in assay [3] and in assay [4] was 21.4% each time. The “Doxorubicin 3.5 μM: percent cell survival” value in assay [4] (setting [9]) is 48.5%. For the same compound, the “Oxaliplatin 100 μM: percent cell survival” value in assay [4] (setting [10]) was 25.1%. Moreover, the “Paclitaxel 50 μM: percent cell survival” value in assay [4] (setting [11]) worked out at 26.9%. Moreover, the “Vincristine 100 nM: percent cell survival” value in assay [4] (setting [12]) turned out to be 21.4%.
